Experimental data as given in PubChem BioAssay AID1117354 (Cheminformatics & Chemogenomics Research Group (CCRG), …, 2015).
Active and inactive are the calls of the source. How the calls were made is not given here.

Biological target: Tyrosine-protein kinase JAK2 (Homo sapiens) (UniProt O60674)
Assay: primary HTS for Janus kinase 2 inhibitors, biochemical, Homo sapiens, LANCE Ultra TR-FRET detection, NCGC Pharmaceutical Collection (AID 1117354)
Conditions: LANCE Ultra TR-FRET kinase assay, at 20 µM (top of the series)

Sequence of Tyrosine-protein kinase JAK2 (Homo sapiens) (O60674 whole entry, looked up): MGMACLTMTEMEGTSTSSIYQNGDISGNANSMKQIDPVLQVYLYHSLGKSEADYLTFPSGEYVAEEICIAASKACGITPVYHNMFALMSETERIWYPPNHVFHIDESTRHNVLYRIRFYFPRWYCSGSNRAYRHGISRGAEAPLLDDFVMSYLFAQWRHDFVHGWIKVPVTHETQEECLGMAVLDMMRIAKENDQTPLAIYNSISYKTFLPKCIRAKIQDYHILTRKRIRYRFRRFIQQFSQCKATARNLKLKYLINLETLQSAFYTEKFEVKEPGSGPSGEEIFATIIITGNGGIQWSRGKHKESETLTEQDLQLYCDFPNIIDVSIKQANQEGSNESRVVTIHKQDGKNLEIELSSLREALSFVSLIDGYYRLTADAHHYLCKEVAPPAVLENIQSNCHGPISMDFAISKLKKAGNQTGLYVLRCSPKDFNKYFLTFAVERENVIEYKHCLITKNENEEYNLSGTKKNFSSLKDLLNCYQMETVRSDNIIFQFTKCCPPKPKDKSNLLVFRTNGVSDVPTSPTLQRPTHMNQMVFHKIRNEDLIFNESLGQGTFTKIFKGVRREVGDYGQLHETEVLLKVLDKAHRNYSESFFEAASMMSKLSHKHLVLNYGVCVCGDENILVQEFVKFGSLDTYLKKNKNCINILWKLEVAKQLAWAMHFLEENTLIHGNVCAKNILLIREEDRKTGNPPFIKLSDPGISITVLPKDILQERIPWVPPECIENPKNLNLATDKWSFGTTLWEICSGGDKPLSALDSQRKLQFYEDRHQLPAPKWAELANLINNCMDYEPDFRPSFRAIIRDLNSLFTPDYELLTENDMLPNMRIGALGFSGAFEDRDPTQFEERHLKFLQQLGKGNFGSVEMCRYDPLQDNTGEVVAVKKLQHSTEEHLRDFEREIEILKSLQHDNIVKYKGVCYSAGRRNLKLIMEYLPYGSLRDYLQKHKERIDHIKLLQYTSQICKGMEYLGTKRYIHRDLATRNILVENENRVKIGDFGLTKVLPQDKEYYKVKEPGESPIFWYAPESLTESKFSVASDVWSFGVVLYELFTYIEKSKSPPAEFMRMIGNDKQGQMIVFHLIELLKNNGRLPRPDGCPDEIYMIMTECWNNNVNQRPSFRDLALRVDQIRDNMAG

| SMILES | inhibition |
| --- | --- |
| CC(=O)[C@]1(O)Cc2c(O)c3c(c(O)c2[C@@H](O[C@H]2C[C@H](N)[C@H](O)[C@H](C)O2)C1)C(=O)c1ccccc1C3=O | 29.1% (inactive) |
| CCCCCCCCCCCCCCCC[n+]1ccccc1 | 53.6% |
| CC(=O)Oc1ccc(C2(c3ccc(OC(C)=O)cc3)Oc3ccccc3NC2=O)cc1 | 7% (inactive) |
| CC[C@]1(O)C[C@@H]2CN(CCc3c([nH]c4ccccc34)[C@@](C(=O)OC)(c3cc4c(cc3OC)N(C)[C@H]3[C@@](O)(C(=O)OC)[C@H](OC(C)=O)[C@]5(CC)C=CCN6CC[C@]43[C@@H]65)C2)C1 | 5.49% (inactive) |
| CCCOc1ccc2nc(NC(=O)OC)[nH]c2c1 | -4.4% (inactive) |
| CSc1ccc2c(c1)C(N1CCN(C)CC1)Cc1ccccc1S2 (stereo not drawn) | -4.22% (inactive) |
| Cc1cc(=O)c2c(O)c3c(O)cc(=O)c4c3c3c(cc(O)c1c23)C(C)(C)C=4O | 32.9% (inactive) |
| O=C(CCCCCCC(=O)Nc1ccccc1)NO | -17.1% (inactive) |
| COc1cc(-c2ccc(=O)[nH]n2)ccc1OC(F)F | -10.1% (inactive) |
| COC(=O)Nc1nc2ccc(Sc3ccccc3)cc2[nH]1 | -7.45% (inactive) |
| CC(C)(C)C(=O)OCOP(=O)(COCCn1cnc2c(N)ncnc21)OCOC(=O)C(C)(C)C | -9.81% (inactive) |
| Cc1cc(C)c(/C=C2\C(=O)Nc3ccccc32)[nH]1 | 68.5% |
| CCCCCCCCCCCCCC[N+](C)(C)C | -1.09% (inactive) |
| C[n+]1c2cc(N)ccc2cc2ccc(N)cc21 (tested in a mixture with another compound) | 8.06% (inactive) |
| C[C@@]12C(=O)OC(=O)[C@]1(C)C1CCC2O1 | -0.89% (inactive) |
| COCc1c(C(C)C)nc(C(C)C)c(/C=C/[C@@H](O)C[C@@H](O)CC(=O)O)c1-c1ccc(F)cc1 | -8.56% (inactive) |
| Cc1cc2c(C(C)C)c(O)c(O)c(C=O)c2c(O)c1-c1c(C)cc2c(C(C)C)c(O)c(O)c(C=O)c2c1O | -0.85% (inactive) |
| Oc1c(Cl)cc(Cl)c2cccnc12 | -13.9% (inactive) |
| O=C(O)c1ccc(-n2nc(-c3ccccc3O)nc2-c2ccccc2O)cc1 | 44.5% (inactive) |
| CCc1nc(N)nc(N)c1-c1ccc(Cl)cc1 | -6.66% (inactive) |
| COC(=O)Nc1nc2ccc(C(=O)c3cccs3)cc2[nH]1 | 12.9% (inactive) |

| SMILES | inhibition |
| --- | --- |
| O=C1c2c(O)ccc(O)c2C(=O)c2c(NCCNCCO)ccc(NCCNCCO)c21 | 43.4% (inactive) |
| COc1c(C)c2c(c(O)c1C/C=C(\C)CCC(=O)OCCN1CCOCC1)C(=O)OC2 | 8.22% (inactive) |
| S=c1nc[nH]c2nc[nH]c12 | 1.43% (inactive) |
| COc1cc(NCc2ccc3nc(N)nc(N)c3c2C)cc(OC)c1OC | 26.2% (inactive) |
| CNC(=O)c1cc(Oc2ccc(NC(=O)Nc3ccc(Cl)c(C(F)(F)F)c3)cc2)ccn1 | 63.2% |
| CCCCCCNC(=O)n1cc(F)c(=O)[nH]c1=O | -3.52% (inactive) |
| CCN(CC)CCNC(=O)c1c(C)[nH]c(/C=C2\C(=O)Nc3ccc(F)cc32)c1C | 97.3% |
| Oc1c(I)cc(I)c2cccnc12 | -10.5% (inactive) |
| CCCSc1ccc2nc(NC(=O)OC)[nH]c2c1 | -0.03% (inactive) |
| CCCN(CCC)C(=O)C(CCC(=O)OCCCN1CCN(CCOC(=O)Cc2c(C)n(C(=O)c3ccc(Cl)cc3)c3ccc(OC)cc23)CC1)NC(=O)c1ccccc1 (stereo not drawn) | 12.5% (inactive) |
| CC[C@@]1(O)C(=O)OCc2c1cc1n(c2=O)Cc2c-1nc1ccccc1c2/C=N/OC(C)(C)C | 12.1% (inactive) |
| CC(C)(C)C1CCC(CC2=C(O)c3ccccc3C(=O)C2=O)CC1 (stereo not drawn) | -11.2% (inactive) |
| COc1ccc2cc1Oc1ccc(cc1)C[C@H]1c3c(cc4c(c3Oc3cc5c(cc3OC)CCN(C)[C@@H]5C2)OCO4)CCN1C | 17.9% (inactive) |
| CCCCCCCCCCCCCCCCCCNC(=O)OC1CCN(C(=O)OC[C@H](COC(=O)N(Cc2cccc[n+]2CC)C(=O)c2ccccc2OC)OC)CC1 | -2.67% (inactive) |
| O=[N+]([O-])c1ccc(O)c2ncccc12 | 1.93% (inactive) |
| COC(=O)Nc1nc2ccc(C(=O)c3ccccc3)cc2[nH]1 | 25.8% (inactive) |
| CC(C)C[C@H](NC(=O)[C@H](CCc1ccccc1)NC(=O)CN1CCOCC1)C(=O)N[C@@H](Cc1ccccc1)C(=O)N[C@@H](CC(C)C)C(=O)[C@@]1(C)CO1 | 5.34% (inactive) |
| O=c1c(-c2ccccc2)c1-c1ccccc1 | -9.18% (inactive) |
| CC[C@]1(O)C[C@H]2CN(CCc3c([nH]c4ccccc34)[C@@](C(=O)OC)(c3cc4c(cc3OC)N(C=O)[C@H]3[C@@](O)(C(=O)OC)[C@H](OC(C)=O)[C@]5(CC)C=CCN6CC[C@]43[C@@H]65)C2)C1 | 9% (inactive) |
| Cc1cc(C2CCCCC2)n(O)c(=O)c1 | -9.21% (inactive) |
| Cc1nc(N)nc(N)c1-c1ccc(Cl)c(Cl)c1 | -2.13% (inactive) |

| SMILES | inhibition |
| --- | --- |
| Cc1cc(O)c2ccccc2c1O | 19.2% (inactive) |
| Cc1ccc(Nc2nccc(N(C)c3ccc4c(C)n(C)nc4c3)n2)cc1S(N)(=O)=O | 81.8% |
| COc1cc2c(c(OC)c1OC)-c1ccc(OC)c(=O)cc1[C@@H](NC(C)=O)CC2 | -10.4% (inactive) |
| COc1cc2nc(N3CCN(C(=O)c4ccco4)CC3)nc(N)c2cc1OC | -17.8% (inactive) |
| CN(C)c1ccc2nc3ccc(=[N+](C)C)cc-3sc2c1 | 13.3% (inactive) |
| C=CC(=O)Nc1cc2c(Nc3ccc(F)c(Cl)c3)ncnc2cc1OCCCN1CCOCC1 | 68.2% |
| CCCCc1oc2ccccc2c1C(=O)c1cc(I)c(OCCN(CC)CC)c(I)c1 | 16.2% (inactive) |
| CNC(=O)c1ccccc1Sc1ccc2c(/C=C/c3ccccn3)n[nH]c2c1 | 94.5% |
| Cn1cnc([N+](=O)[O-])c1Sc1ncnc2nc[nH]c12 | -15.7% (inactive) |
| COc1ccc(-c2ccc3cc(C(=O)O)ccc3c2)cc1C12CC3CC(CC(C3)C1)C2 | 97.7% |
| O=c1[nH]c(=O)n([C@H]2C[C@H](O)[C@@H](CO)O2)cc1F | -18.6% (inactive) |
| O=C(CCl)c1ccc(Cl)cc1Cl | -17.1% (inactive) |
| Oc1c(Cl)cc(Cl)cc1Sc1cc(Cl)cc(Cl)c1O | -0.83% (inactive) |
| CCN(CC)CCNc1ccc(CO)c2sc3ccccc3c(=O)c12 | 33.1% (inactive) |
| Cc1nc2ccc(CN(C)c3ccc(C(=O)N[C@@H](CCC(=O)O)C(=O)O)s3)cc2c(=O)[nH]1 | 14.6% (inactive) |
| Cc1ccc2nc(N)[nH]c(=O)c2c1Sc1ccncc1 | 16.7% (inactive) |
| COc1cc([C@@H]2c3cc4c(cc3[C@H](O)[C@H]3COC(=O)[C@H]23)OCO4)cc(OC)c1OC | 7.37% (inactive) |
| O=C(NOCC1CC1)c1ccc(F)c(F)c1Nc1ccc(I)cc1Cl | 13.2% (inactive) |
| [O-][n+]1ccccc1SSc1cccc[n+]1[O-] | -17.3% (inactive) |
| NC(=NCCCCCCN=C(N)/N=C(\N)Nc1ccc(Cl)cc1)/N=C(\N)Nc1ccc(Cl)cc1 | 0.31% (inactive) |
| CCCCC1C(=O)N(c2ccccc2)N(c2ccc(O)cc2)C1=O (stereo not drawn) | -4.57% (inactive) |

| SMILES | inhibition |
| --- | --- |
| CCC1=C[C@@H]2CN(C1)Cc1c([nH]c3ccccc13)[C@@](C(=O)OC)(c1cc3c(cc1OC)N(C)[C@H]1[C@@](O)(C(=O)OC)[C@H](OC(C)=O)[C@]4(CC)C=CCN5CC[C@]31[C@@H]54)C2 | 1.76% (inactive) |
| CCN(CC)CCOc1ccc(/C(=C(\Cl)c2ccccc2)c2ccccc2)cc1 | -4.05% (inactive) |
| Cc1ccccc1C(=O)Nc1ccc(C(=O)N2CCCC(N(C)C)c3ccccc32)cc1 (stereo not drawn) | 16% (inactive) |
| CC(C)C[C@H](NC(=O)[C@H](Cc1ccccc1)NC(=O)c1cnccn1)B(O)O | -3.33% (inactive) |
| O=C(Nc1ccc([N+](=O)[O-])cc1Cl)c1cc(Cl)ccc1O | 16.5% (inactive) |
| C=C(C)[C@H]1Cc2c(ccc3c2O[C@@H]2COc4cc(OC)c(OC)cc4[C@@H]2C3=O)O1 | 4.93% (inactive) |
| CN1CC[C@H](c2c(O)cc(O)c3c(=O)cc(-c4ccccc4Cl)oc23)[C@H](O)C1 | 67.4% |
| Nc1ccc2cc3ccc(N)cc3nc2c1 | -6.54% (inactive) |
| COC(=O)Nc1nc2ccc(C(=O)C3CC3)cc2[nH]1 | 21.4% (inactive) |
| COc1cccc2c1C(=O)c1c(O)c3c(c(O)c1C2=O)C[C@@](O)(C(C)=O)C[C@@H]3O[C@H]1C[C@H](N)[C@H](O)[C@H](C)O1 | 7.94% (inactive) |
| COC(=O)[C@H]1[C@H]2C[C@@H]3c4[nH]c5cc(OC)ccc5c4CCN3C[C@H]2C[C@@H](OC(=O)/C=C/c2ccc(O)c(OC)c2)[C@@H]1OC | 9.23% (inactive) |
| COC(=O)Nc1nc2ccc(S(=O)c3ccccc3)cc2[nH]1 (stereo not drawn) | -7.42% (inactive) |
| Cc1nc(Nc2ncc(C(=O)Nc3c(C)cccc3Cl)s2)cc(N2CCN(CCO)CC2)n1 | 98.4% |
| Nc1nc(=S)c2[nH]cnc2[nH]1 | 10.3% (inactive) |
| O=c1[nH]c(=O)n([C@H]2C[C@H](O)[C@@H](CO)O2)cc1C(F)(F)F | 14.7% (inactive) |
| Cc1ccc([N+](=O)[O-])[c]2c1[O][Hg]2 | 36.9% (inactive) |
| CCC(C)n1ncn(-c2ccc(N3CCN(c4ccc(OC[C@H]5CO[C@](Cn6cncn6)(c6ccc(Cl)cc6Cl)O5)cc4)CC3)cc2)c1=O (stereo partly drawn) | 10.5% (inactive) |
| COc1ccc(-c2nc3ccc(C4=NNC(=O)CC4C)cc3[nH]2)cc1 (stereo not drawn) | -0.61% (inactive) |
| CC[C@@H]([C@H](C)O)n1ncn(-c2ccc(N3CCN(c4ccc(OC[C@@H]5CO[C@@](Cn6cncn6)(c6ccc(F)cc6F)C5)cc4)CC3)cc2)c1=O | 10.5% (inactive) |
| COC(=O)c1nc(Cl)c(Cl)nc1N | -6.75% (inactive) |
